Columns and labels:
[1] = system: outward potassium currents of rat tail arterial SMCs; assay: Whole cell recording of outward potassium currents in rat tail arterial SMCs; type: cell-based, Wistar rats; settings: X ± SD n = 5
Source text: Biological activity experiments 6. The effects of novel compounds on potassium currents in isolated arterial vascular smooth muscle cells (SMCs).
The outward currents were, elicited in rat tail arterial SMCs by superfusing extracellular solution under whole cell recording configuration that the depolarizing pulse were applied from −30 mV to +100 mV with the holding potential of −40 mV in 100 ms, 10 mV clamp steps, a frequency of 5 KHz. The compounds were applied in the bath at the concentrations of 100 μmol L^−1. The amplitude of the outward potassium currents was recorded before and after compound application Values were expressed as means±SD. Statistical significance between two groups was evaluated by student's t-test for paired data * P<0.05 **P<0.01 vs control.
1. Preparation of single smooth muscle cells from rat tail arteries: Male Wistar rats (200-250 g) were killed by exsanguination. The tail artery was dissected out and transferred into cold physiological salt solution (PSS) of the following composition (in mM): NaCl 118.3, KCl 4.7, KH2PO4 1.2, MgSO4 1.2, NaHCO3 25.0, CaCl2 2.5, EDTA 0.026 and Glucose 5.0 pH7.4. With the use of a dissecting microscope, the connective tissues were removed and the artery was cut open longitudinally. Endothelium was removed carefully with a cotton swab then the artery was cut into segments with 1 mm long and placed in 4° C. the extracellular solution containing (in mM) NaCl 130, KCl 5, MgCl2 1.2, HEPES 10, Glucose 10, pH7.2 for 20 min. After this incubation, the medium was changed to enzyme solution which was composed of collagenase I (1 mg ml^−1), papain (5 mg ml^−) and bovine serum albumin (2 mg ml^−1). The tissues, were incubated in this solution for 40 min, and then rinsed three times triturated using a fire-polished Pasteur pipette until the medium turned cloudily. The cell suspension was stored in the refrigerator at 4° C.
3. Whole cell recordings: A bath dish with the smooth muscle cells (SMCs) attached and superfused with the extracellular solution at a flow rate of 2 ml min^−1 was mounted onto the stage of an inverted-phase contrast microscope. The microelectrodes having a resistance of (5-8 MΩ) were made from boroscilicate thin-wall glass capillaries, using an automatic multiple-stage, electronic puller (PP830 Japan) and then heat-polished. After establishing a high resistance seal, the patch membrane was disrupted by negative pressure. A commercial patch clamp amplifier (Axon 200B) was used to generate and apply voltages and sample current signals from the cell.

[2] = system: rats anesthetized with pentobarbital sodium; assay: Effects on blood pressure, heart rate, cardiac contraction and dilation in rats anesthetized with pentobarbital sodium; type: in vivo, Wistar rats; set-up: unit not given here; settings: change after injection through femoral vein, '+' = increase, all others = decrease
Method: Biological activity experiment 1. The effects of 16 compounds represented by formula I on blood pressure, heart rate, cardiac contraction and dilation in rats anesthetized with pentobarbital sodium.
The methods of biological activity experiment 1 were as follows: Male Wistar rats, weighing 280±30 g were purchased from the experimental animal center of Academy of Military Medical Sciences. Rats were anesthetized with pentobarbital sodium (45 mg/kg) by peritoneal injection. A PE50 polyethylene catheter was inserted into the left ventricle through right carotid artery for cardiac function measurement with a pressure energe exchanger, wherein the signal is put into a SMUP-PC biosignal processing system. Cardiac functional parameters such as HR, LVSP, +dp/dtmax, −dp/dtmax and Vpm were recorded. Another two PE50 polyethylene catheters were inserted into the right femoral artery and vein respectively for blood pressure measurement wherein the artery cathether was linked to a four-channel physiology recorder (RM-6000) through a MPU-0.5A Type pressure energe exchanger, which recorded SBP, DBP and MBP, while the vein catheter was used for compound administration. The methods were described by Liu Wei et al: Liu Wei, Wang Hai, Xiao Wen-Bin. […] Bull Acad Mil Med Sci 1996;20(4):245˜248.

[3] = mean, n = 3~5, doses mg/kg: 2, 8, 12: 10, 3-7, 9-11, 40-44: 5

## CCCNC(C)(C)C(C)C [compound 5, N-propyl-2,3-dimethyl-2-butylamine]
other
  melting point: 183 to 185 °C
[1]; outward potassium current amplitude after compound 100 μmol L^−1 in the bath
  Currents, + Compound: 0.67 ± 0.30 nA
[1]; outward potassium current amplitude before compound application, same cells
  Currents, Control (before compound application): 0.65 ± 0.30 nA
[2]; n = 3~5, doses mg/kg: 2, 8, 12: 10, 3-7, 9-11, 40-44: 5
  MBP: mean blood pressure: 28
[2]; [3]
  DBP: diastolic blood pressure: 25
  HR: heart rate: 78
  LVSP: left ventricular systolic pressure: 162
  SBP: systolic blood pressure: 34
  Vpm: the physiological velocity of contractile element shorting: 0.58
  −dp/dtmax: the maximal rate of the decrease of left ventricular pressure: 187

Source: US7560473B2 (Institute of Pharmacology and Toxicology Academy of …, priority 2001, dated 2009)
